Columns and labels:
AD38 cells = test: Viability of AD38 cells (Promega CellTiter-Glo); type: cell-based; details: 10 μM compound, 6 days, CellTiter-Glo luminescence normalized to DMSO control (100%)
Method: (§1) Example 2: Assay Measuring Activity of Compounds on Viral Production in and on Viability of AD38 Cells
(§2) AD38 cells were then re-suspended with 10 mL of Treatment Medium and counted. Wells of a collagen coated 96-well NUNC microtiter plate were seeded at 50,000/well in 180 μL of Treatment Medium, and 20 μL of in treatment media with either 10% DMSO (Control) or a 10× solution of compound in 10% DMSO was added. Plates were incubated for 6 days at 37° C.
At the end of compound treatment period cell viability was assessed using a Promega CellTiter-Glo protocol. All supernatant was removed the previously treated 96-well microtiter plate, and 50 μL Tetracycline-free treatment medium (DMEM/F12 (1:1), 1× Pen/step (cat #: 30-002-CL, Mediatech, Inc), with 2% FBS, Tet-system approved (cat #: 631106, Clontech), and 1% DMSO was added back to each well. Another 50 μL of CellTiter-Glo reagent solution (Promega, G7573) was then added at room temperature and the contents mixed for 2 minutes on an orbital shaker to induce cell lysis. This was followed by incubation at room temperature for 10 minutes to stabilize the luminescent signal. The luminescence was recorded for 0.2 seconds per well on a Tecan multimode plate reader (Infinite M1000 pro). The luminescent signal from each well was normalized against that of untreated (DMSO) control wells. All results were reported percent viability (with controls being 100%).

[1] = system: HBV viral load in AD38 cells; test: Viral load production in AD38 cells, quantitative PCR of the core sequence in supernatant; type: cell-based; details: Hepatitis B virus, 144 h, 10 μM compound, 6 days at 37° C., supernatant qPCR, relative to DMSO control; read-out: AD38 Viral Load (%) (VL with cmpd/VL in DMSO control) at 10 μM
Method: as §1, §2
Viral load production was assayed by quantitative PCR of the core sequence. […] The PCR mixture was incubated at 45° C. for 5 minutes, then 95° C. for 10 min, followed by 40 cycles of 10 seconds at 95° C. and 20 seconds at 60° C. Viral load was quantitated against known standards by using ViiA™ 7 Software. Viral load in the supernatant from wells with treated cells were compared against viral load in supernatant from DMSO control wells (>3 per plate).

| SMILES | AD38 Viability Normalized Result (cmpd/DMSO %) at 10 μM (AD38 cells) | activity at 10 µM [1] |
| --- | --- | --- |
| CN1CCC[C@H]1COc1ccc(-c2ncc(CNC(=O)c3ccc4c(c3)NC(=O)c3ccccc3S4(=O)=O)s2)cc1 [compound 11135, (S)—N-((2-(4-((1-methylpyrrolidin-2-yl)methoxy)phenyl)thiazol-5-yl)methyl)-11-oxo-10,11-dihydrodibenzo [b, f] [1, 4] thiazepine-8-carboxamide 5,5-dioxide] | 91% | 1.8% |
| O=C(NCc1cnc(-c2cnco2)s1)c1ccc2c(c1)NC(=O)c1ccccc1S2(=O)=O [compound 1957] | 94% | 1.5% |
| O=C(NCc1cnc(-c2ccc(O)cc2)s1)c1ccc2c(c1)NC(=O)c1ccccc1S2(=O)=O [compound 1595, N-((2-(4-hydroxyphenyl)thiazol-5-yl)methyl)-11-oxo-10, 11-dihydrodibenzo [b, f] [1, 4] thiazepine-8-carboxamide 5,5-dioxide] | 109% | 0.3% |
| O=C(NCc1cnc(-c2nccs2)s1)c1ccc2c(c1)NC(=O)c1ccccc1O2 [compound 1893] | 91% | 2% |
| O=C(NCc1cnc(-c2ccc(-c3cc[nH]n3)cc2)s1)c1ccc2c(c1)NC(=O)c1ccccc1S2(=O)=O [compound 1953] | 118% | 0.4% |
| Cc1c(C(=O)NCc2cnc(-c3ccc(C#N)cc3)s2)ccc2c1NC(=O)c1ccccc1O2 [compound 1942] | 106% | 3% |
| O=C1Nc2c(cc(F)c(C(=O)NCc3cnc(-c4ccc(O)cc4)s3)c2F)Sc2ccccc21 [compound 1750] | 107% | 1.1% |
| O=C(NCc1cnc(N2CCCCCC2)s1)c1ccc2c(c1)NC(=O)c1ccccc1S2(=O)=O [compound 1907] | 85% | 0.5% |
| COc1ccc(Cc2ncc(CNC(=O)c3ccc4c(c3)NC(=O)c3ccccc3S4(=O)=O)s2)cc1 [1823-A, N-((2-(4-methoxybenzyl)thiazol-5-yl)methyl)-11-oxo-10, 11-dihydrodibenzo [b, f] [1, 4] thiazepine-8-carboxamide 5,5-dioxide] | 92% | 5.8% |
| O=C1Cc2cccc(-c3ncc(CNC(=O)c4ccc5c(c4)NC(=O)c4ccccc4S5(=O)=O)s3)c2N1 [compound 1930] | 91% | 23.8% |
| CN(C)CCCOc1ncc(CNC(=O)c2ccc3c(c2)NC(=O)c2ccccc2S3(=O)=O)s1 [compound 1680, N-((2-(3-(dimethylamino)propoxy)thiazol-5-yl)methyl)-11-oxo-10, 11-dihydrodibenzo [b, f] [1, 4] thiazepine-8-carboxamide 5,5-dioxide] | 94% | 15% |
| O=C(O)c1ccc(-c2ncc(CNC(=O)c3ccc4c(c3)NC(=O)c3ccccc3S4)s2)cc1 [compound 1599, 4-(5-((11-oxo-10, 11-dihydrodibenzo [b, f] [1, 4]thiazepine-8-carboxamido)methyl)thiazol-2-yl) benzoic acid] | 61% | 5.9% |
| CN(CCCCc1ccc(-c2ncc(CNC(=O)c3ccc4c(c3)NC(=O)c3ccccc3S4(=O)=O)s2)cc1)C1CC1 [compound 11094] | 94% | 0.6% |
| CC(C)(C)OC(=O)NC1CCN(Cc2ncc(CNC(=O)c3ccc4c(c3)NC(=O)c3ccccc3S4(=O)=O)s2)CC1 [1885-A] | 107% | 4.5% |
| CC(CCN(C)C)Oc1ccc(-c2ncc(CNC(=O)c3ccc4c(c3)NC(=O)c3ccccc3S4(=O)=O)s2)cc1 (stereo not shown) [compound 11080] | 84% | 1.4% |
| Cl.O=C(NCc1cnc(-c2ccc(OC[C@@H]3CCCN3)cc2)s1)c1ccc2c(c1)NC(=O)c1ccccc1S2(=O)=O [compound 11029, (S)-11-oxo-N-((2-(4-(pyrrolidin-2-ylmethoxy)phenyl)thiazol-5-yl)methyl)-10, 11-dihydrodibenzo [b, f] [1, 4] thiazepine-8-carboxamide 5,5-dioxide hydrochloride] | 105% | 5.3% |
| NC(=O)c1cccc(-c2ncc(CNC(=O)c3ccc4c(c3)NC(=O)c3ccccc3S4(=O)=O)s2)c1 [1677-B, N-((2-(3-carbamoylphenyl)thiazol-5-yl)methyl)-11-oxo-10, 11-dihydrodibenzo [b, f] [1, 4] thiazepine-8-carboxamide 5,5-dioxide] | 89% | 2.4% |
| O=C(NCc1cnc(-c2ccc(OCCCOn3nnc4cccnc43)cc2)s1)c1ccc2c(c1)NC(=O)c1ccccc1S2(=O)=O [11108-B, N-((2-(4-(3-((3H-[1,2,3]triazolo[4,5-b]pyridin-3-yl)oxy)propoxy)phenyl)thiazol-5-yl)methyl)-11-oxo-10,11-dihydrodibenzo[b, f] [1,4]thiazepine-8-carboxamide 5,5-dioxide] | 101% | 0.8% |
| O=C(NCc1cnc(C(F)(F)F)s1)c1ccc2c(c1)NC(=O)c1ccccc1[S+]2[O-] (stereo not shown) [compound 1772] | 109% | 7.1% |
| N#Cc1ccc(-c2ncc(CNC(=O)c3cc4c(cc3O)S(=O)(=O)c3ccccc3C(=O)N4)s2)cc1 [1901-B, N-((2-(4-cyanophenyl)thiazol-5-yl)methyl)-7-hydroxy-11-oxo-10, 11-dihydrodibenzo [b, f] [1, 4] thiazepine-8-carboxamide 5,5-dioxide] | 108% | 69.4% |
| Cc1cc(-c2ncc(CNC(=O)c3ccc4c(c3)NC(=O)c3ccccc3S4(=O)=O)s2)ccc1O [compound 1804, N-((2-(4-hydroxy-3-methylphenyl)thiazol-5-yl)methyl)-11-oxo-10, 11-dihydrodibenzo [b, f] [1, 4] thiazepine-8-carboxamide 5,5-dioxide] | 103% | 0.5% |
| COc1ncc(-c2ncc(CNC(=O)c3ccc4c(c3)NC(=O)c3ccccc3O4)s2)cn1 [1709-A, N-((2-(2-methoxypyrimidin-5-yl)thiazol-5-yl)methyl)-11-oxo-10, 11-dihydrodibenzo [b, f] [1, 4] oxazepine-8-carboxamide] | 106% | 29.5% |
| Nc1ccc(-c2ncc(CNC(=O)c3ccc4c(c3)NC(=O)c3ccccc3S4(=O)=O)s2)cn1 [compound 1672] | 101% | 0.6% |
| O=C(NCc1cnc(-c2ccncc2)s1)c1ccc2c(c1)NC(=O)c1ccccc1S2(=O)=O [compound 1625] | 96% | 51.9% |
| CN(C)C1CCN(c2ncc(CNC(=O)c3ccc4c(c3)NC(=O)c3ccccc3S4(=O)=O)s2)CC1 [compound 1636] | 95% | 76.9% |
| Cc1c(C(=O)NCc2cnc(C(F)(F)F)s2)cc(Br)c2c1NC(=O)c1ccccc1S2 [compound 1914] | 77% | 120% |
